From article PMC9848300, “Discovery of novel enasidenib analogues targeting inhibition of mutant isocitrate dehydrogenase 2 as antileukaemic agents” (Journal of Enzyme Inhibition and Medicinal Chemistry, 2023)

Key:
[1] = system: CCRF-CEM; assay: NCI 60 antitumor screening (single dose / five doses); type: cell-based; conditions: Homo sapiens; CCRF-CEM (leukaemia), single dose 10 μM; read-out: Growth inhibition percentage (GI %)
[2] = system: HL-60(TB); assay: as above; type: cell-based; conditions: Homo sapiens; HL-60(TB) (leukaemia), single dose 10 μM; read-out: Growth inhibition percentage (GI %)
[3] = system: MOLT-4; assay: as above; type: cell-based; conditions: Homo sapiens; MOLT-4 (leukaemia), single dose 10 μM; read-out: Growth inhibition percentage (GI %)
[4] = system: RPMI-8226; assay: as above; type: cell-based; conditions: Homo sapiens; RPMI-8226 (leukaemia), single dose 10 μM; read-out: Growth inhibition percentage (GI %)
[5] = system: A549/ATCC; assay: NCI 60 antitumor screening (single dose); type: cell-based; conditions: Homo sapiens; A549/ATCC (non-small cell lung cancer), single dose 10 μM; read-out: Growth inhibition percentage (GI %)
Outline: (§1)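 NCI-60 one-dose screen. Dose: 10 μM. Lines: 60 human tumour lines, nine tissue types. Output: GI% = 100 − G%.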

[6] = system: CAKI-1; assay: NCI 60 antitumor screening (single dose); type: cell-based; conditions: Homo sapiens; CAKI-1 (renal cancer), single dose 10 μM; read-out: Growth inhibition percentage (GI %)
Outline: as §1

[7] = system: MCF7; assay: NCI 60 antitumor screening (single dose); type: cell-based; conditions: Homo sapiens; MCF7 (breast cancer), single dose 10 μM; read-out: Growth inhibition percentage (GI %)
Outline: as §1

[8] = system: NCI-H23; assay: NCI 60 antitumor screening (single dose); type: cell-based; conditions: Homo sapiens; NCI-H23 (non-small cell lung cancer), single dose 10 μM; read-out: Growth inhibition percentage (GI %)
Outline: (§2)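 Values are GI% (100 − G%) from the NCI 60-line single-dose screen, compound at 10 μM.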

[9] = system: NCI-H322M; assay: NCI 60 antitumor screening (single dose); type: cell-based; conditions: Homo sapiens; NCI-H322M (non-small cell lung cancer), single dose 10 μM; read-out: Growth inhibition percentage (GI %)
Outline: as §1

[10] = system: NCI-H522; assay: NCI 60 antitumor screening (single dose); type: cell-based; conditions: Homo sapiens; NCI-H522 (non-small cell lung cancer), single dose 10 μM; read-out: Growth inhibition percentage (GI %)
Outline: as §2

[11] = system: SF-268; assay: NCI 60 antitumor screening (single dose); type: cell-based; conditions: Homo sapiens; SF-268 (CNS cancer), single dose 10 μM; read-out: Growth inhibition percentage (GI %)
Outline: as §2

[12] = system: HCT-15; assay: NCI 60 antitumor screening (single dose / five doses); type: cell-based; conditions: Homo sapiens; HCT-15 (colon cancer), single dose 10 μM; read-out: Growth inhibition percentage (GI %)
[13] = system: HT29; assay: as above; type: cell-based, human; conditions: Homo sapiens, HT-29; HT29 (colon cancer), single dose 10 μM; read-out: Growth inhibition percentage (GI %)
[14] = system: SW-620; assay: as above; type: cell-based, human; conditions: Homo sapiens; SW-620 (colon cancer), single dose 10 μM; read-out: Growth inhibition percentage (GI %)
[15] = system: SF-539; assay: as above; type: cell-based; conditions: Homo sapiens; SF-539 (CNS cancer), single dose 10 μM; read-out: Growth inhibition percentage (GI %)
[16] = system: SNB-75; assay: as above; type: cell-based; conditions: Homo sapiens; SNB-75 (CNS cancer), single dose 10 μM; read-out: Growth inhibition percentage (GI %)
[17] = system: MALME-3M; assay: as above; type: cell-based; conditions: Homo sapiens; MALME-3M (melanoma), single dose 10 μM; read-out: Growth inhibition percentage (GI %)
[18] = system: MDA-MB-435; assay: as above; type: cell-based; conditions: Homo sapiens; MDA-MB-435 (melanoma), single dose 10 μM; read-out: Growth inhibition percentage (GI %)
[19] = system: SK-MEL-5; assay: as above; type: cell-based; conditions: Homo sapiens; SK-MEL-5 (melanoma), single dose 10 μM; read-out: Growth inhibition percentage (GI %)
[20] = system: UACC-62; assay: as above; type: cell-based; conditions: Homo sapiens; UACC-62 (melanoma), single dose 10 μM; read-out: Growth inhibition percentage (GI %)
[21] = system: 786-0; assay: as above; type: cell-based; conditions: Homo sapiens, 786-0, 786-0 (renal cancer), single dose 10 μM; read-out: Growth inhibition percentage (GI %)
[22] = system: A498; assay: as above; type: cell-based; conditions: Homo sapiens; A498 (renal cancer), single dose 10 μM; read-out: Growth inhibition percentage (GI %)
[23] = system: RXF 393; assay: as above; type: cell-based; conditions: Homo sapiens; RXF 393 (renal cancer), single dose 10 μM; read-out: Growth inhibition percentage (GI %)
[24] = system: UO-31; assay: as above; type: cell-based; conditions: Homo sapiens; UO-31 (renal cancer), single dose 10 μM; read-out: Growth inhibition percentage (GI %)
[25] = system: MDA-MB-231/ATCC; assay: as above; type: cell-based; conditions: Homo sapiens; MDA-MB-231/ATCC (breast cancer), single dose 10 μM; read-out: Growth inhibition percentage (GI %)
[26] = system: BT-549; assay: as above; type: cell-based; conditions: Homo sapiens; BT-549 (breast cancer), single dose 10 μM; read-out: Growth inhibition percentage (GI %)
[27] = system: 60 human subpanel cancer cell lines; assay: NCI 60 antitumor screening, mean over the panel (single dose); type: cell-based; conditions: mean over 60 cancer cell lines, single dose 10 μM
Method: Initially, the anticancer effects of target compounds have been assessed at a single (10 μM) dose. The obtained data have been reported as mean-graph of the percent growth (G%) of the treated cancer cells. Percentage growth inhibition (GI%) is calculated (100 − G%) and pronounced in Table 1. […] Target compounds in series (III) with manipulated linkers disclosed lower potency. Superiorly, eight s-triazine derivatives from the three series (6a, 6c, 6d, 7a, 7g, 7i, 7l, and 8b) have shown potent broad-spectrum anticancer activity against most the examined cell lines, whereas most of the remaining triazine derivatives, 20 derivatives, have exerted selective anti-proliferative actions towards certain cancer cell lines (Supplementary).
The antitumor screening was performed for 60 human cancer cell lines under the protocol of NCI (www.dtp.nci.nih.gov), the Drug Evaluation Branch, Bethesda, MD. All submitted compounds were nominated based on the degree of structural diversity and computer modelling techniques for evaluation of their anticancer activity. The screening process for antineoplastic activity passes through two successive levels, starting with the assessment of target compounds at a single dose of 10 μM against 60 cancer cell lines on nine types of human tumours. These experiments were done on a triplicate following. The output from the single‐dose screening was covered as a mean graph, and then, analysed by the COMPARE program. Finally, the compounds which disclosed subpanel cancer cell growth (G %) equal to or less than 10% in at least eight cancer cell lines get to pass the assessment against the 60 cell lines at five doses (0.01–100 μM). By using GraphPad Prism version 9.0 (Graphpad Software Inc., La Jolla, CA), GI50, TGI, as well as LC50 dose‐response parameters were computed and presented for each compound (Supplementary information)[55–57].

[28] = system: M14; assay: NCI 60 antitumor screening (single dose); type: cell-based; conditions: Homo sapiens; M14 (melanoma), single dose 10 μM; read-out: Growth inhibition percentage (GI %)
Outline: as §1

Compound	inhibition at 10 µM [1] [%]	inhibition at 10 µM [2] [%]	inhibition at 10 µM [3] [%]	inhibition at 10 µM [4] [%]	inhibition at 10 µM [5] [%]	inhibition at 10 µM [6] [%]	inhibition at 10 µM [7] [%]	inhibition at 10 µM [8] [%]	inhibition at 10 µM [9] [%]	inhibition at 10 µM [10] [%]	inhibition at 10 µM [11] [%]	inhibition at 10 µM [12] [%]	inhibition at 10 µM [13] [%]	inhibition at 10 µM [14] [%]	inhibition at 10 µM [15] [%]	inhibition at 10 µM [16] [%]	inhibition at 10 µM [17] [%]	inhibition at 10 µM [18] [%]	inhibition at 10 µM [19] [%]	inhibition at 10 µM [20] [%]	also measured
Brc1ccccc1/C=N/Nc1nc(N/N=C/c2ccccc2Br)nc(N2CCOCC2)n1 [compound 6b, 2,4-Bis[(E)-2-[(2-bromophenyl)methylidene]hydrazin-1-yl]-6-(morpholin-4-yl)-1,3,5-triazine]	19.9	19.5	27.4	35	2.89	-8.66	14.8	-4.52	3.22	13.4	-2.5	18.9	26	3.31	-4.64	-31.7	-42.9	2.29	30.4	-2.17	inhibition at 10 µM [21]: 38.7%; inhibition at 10 µM [22]: 49.8%; inhibition at 10 µM [23]: 30.4%; inhibition at 10 µM [24]: 21.4%; inhibition at 10 µM [25]: -3.3%; inhibition at 10 µM [26]: -6.54%; Mean GI % [27]: 7.16%
Brc1cccc(/C=N/Nc2nc(N/N=C/c3cccc(Br)c3)nc(N3CCCCC3)n2)c1 [compound 7c, 2,4-Bis[(E)-2-[(3-Bromophenyl)methylidene]hydrazin-1-yl]-6-(piperidin-1-yl)-1,3,5-triazine]	18.7	7.75	31.6	11.8	10.6	0.79	20.2	-5.83	-3.53	8.55	-5.8	16.1	3.98	-8.28	-6.24	-17.3	15.1	4.57	28.6	14.5	inhibition at 10 µM [21]: 4.36%; inhibition at 10 µM [22]: 12.2%; inhibition at 10 µM [23]: -16.1%; inhibition at 10 µM [24]: 20.2%; inhibition at 10 µM [25]: -8.36%; inhibition at 10 µM [26]: -13.1%; Mean GI % [27]: 2.56%
Fc1cccc(/C=N/Nc2nc(N/N=C/c3cccc(F)c3)nc(N3CCCCC3)n2)c1 [compound 7e, 2,4-Bis[(E)-2-[(3-Fluorophenyl)methylidene]hydrazin-1-yl]-6-(piperidin-1-yl)-1,3,5-triazine]	41.3	31.9	40.4	38.8	10.6	9.66	26.7	9.62	-8.36	8.08	0.36	29.2	8.7	-7.5	-3.16	-14.6	-0.5	8.23	32.1	25.8	inhibition at 10 µM [21]: 10.5%; inhibition at 10 µM [22]: 15.7%; inhibition at 10 µM [23]: -12.5%; inhibition at 10 µM [24]: 22.1%; inhibition at 10 µM [25]: -0.43%; inhibition at 10 µM [26]: -5.92%; Mean GI % [27]: 10.18%
COC(=O)C(Cc1ccccc1)Nc1nc(NC(Cc2ccccc2)C(=O)OC)nc(N2CCOCC2)n1 (centres unmarked) [compound 8c, Methyl 2-({4-[(1-methoxy-1-oxo-3-phenylpropan-2-yl)amino]-6-(morpholin-4-yl)-1,3,5-triazin-2-yl}amino)-3-phenylpropanoate]	-4.54	-2.51	-1.03	1.47	-8.33	13.2	2.21	-6.51	2.57	9.02	-2.56	-6.16	-0.61	-11.7	1.99	9.51	-4.87	-4.67	1.32	9.82	inhibition at 10 µM [21]: -0.43%; inhibition at 10 µM [22]: -7.4%; inhibition at 10 µM [23]: -12.7%; inhibition at 10 µM [24]: 18.8%; inhibition at 10 µM [25]: -2.54%; inhibition at 10 µM [26]: -11.7%
O=C(NNc1nc(NNC(=O)c2ccccc2)nc(N2CCOCC2)n1)c1ccccc1 [compound 8d, N'-[4-(morpholin-4-yl)-6-(phenylhydrazido)-1,3,5-triazin-2-yl]benzohydrazide]	-6.05	-15.3	-8.9	-9.42	1.66	3.15	0.71	5.69	4.42	-2.83	-1.5	-2.67	-12	-4.44	2.56	9.11	-7.11	-2.63	0.18	4.98	inhibition at 10 µM [28]: -0.8%; inhibition at 10 µM [21]: -3.15%; inhibition at 10 µM [22]: -11%; inhibition at 10 µM [23]: 0.99%; inhibition at 10 µM [24]: 13.3%; inhibition at 10 µM [25]: -3.73%; inhibition at 10 µM [26]: -9.45%
